Measurements taken from PMC9596378, “Discovery and molecular basis of subtype-selective cyclophilin inhibitors” (Nature Chemical Biology, 2022).
Values joined by “and” are separate entries in the source; they are usually repeats but may differ in a detail not shown here. Equal entries are not always repeated. Where two headings read alike, the source gives them in different places. Blank lines part the entries; values can stand above or below the molecule they belong to.

Assays:
[1] = tested on: HeLa cells; experiment: Fluorescence microscopy of Cy5-conjugated compounds; assay type: cell-based, human
Method: Cells were seeded into 96-well, black, clear-bottom, TC-treated plates, in DMEM supplemented with 10% FBS 24 h prior at a density where wells were ~80% confluent at the time of the experiment. Medium was removed and cells were then stained with 50 µL mixture containing Cy5-labeled compound (6 µM) in Kreb’s ringer solution HEPES buffered pH 7.2 (KRB), for 1 h at 37 °C. Then, 50 µL Hoechst 33342 (8 µM) and Mitotracker Green FM (0.1 µM) in KRB was added directly to wells containing cells and incubated for 15 min at 37 °C. Medium was removed and cells were washed twice with 100 µL KRB. Cells were then kept adherent to the wells in 100 µL KRB for imaging. Fluorescence microscopy was conducted on an Opera Phenix Plus High-Content Screening System, using Alexa 488, Alexa 647, and Hoescht 33342 channels. Images were analyzed using Harmony v.4.9.

[2] = target: T1, CypH (Homo sapiens, UniProt O43447); experiment: Chymotrypsin coupled prolyl-isomerase assay; assay type: biochemical; settings: for prolyl-isomerase activity (raw dose-response value): CypH
T1 construct: PPIH (UniProtKB Entry O43447: residues 1–177); His6 with TEV site (2BT vector leader) (N); made in house; host or cells: E. coli BL21(DE3)
T1 sequence (O43447 whole entry, the tested form may be a part): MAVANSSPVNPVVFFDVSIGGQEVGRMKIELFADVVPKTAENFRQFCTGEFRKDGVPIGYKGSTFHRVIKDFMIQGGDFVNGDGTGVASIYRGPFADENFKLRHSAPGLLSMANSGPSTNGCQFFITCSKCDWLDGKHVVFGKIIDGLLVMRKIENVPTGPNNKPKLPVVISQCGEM
Method in brief: (§1)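 Steps: cyclophilin plus compound 5 min at 2–3 °C; α-chymotrypsin added, 5 min more; Suc-AAPF-AMC substrate in LiCl/trifluoroethanol injected and fluorescence followed 330 s. Finals: 5 nM enzyme, 25 µM chymotrypsin, 5 µM substrate, 0.25% DMSO.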

[3] = target: T2, CypC (Homo sapiens, UniProt P45877); experiment: Chymotrypsin coupled prolyl-isomerase assay; assay type: biochemical; settings: for prolyl-isomerase activity (raw dose-response value): CypC, in s^-1
T2 construct: PPIC (UniProtKB Entry P45877: residues 24–212); host or cells: E. coli BL21(DE3)
T2 sequence (P45877 24-212): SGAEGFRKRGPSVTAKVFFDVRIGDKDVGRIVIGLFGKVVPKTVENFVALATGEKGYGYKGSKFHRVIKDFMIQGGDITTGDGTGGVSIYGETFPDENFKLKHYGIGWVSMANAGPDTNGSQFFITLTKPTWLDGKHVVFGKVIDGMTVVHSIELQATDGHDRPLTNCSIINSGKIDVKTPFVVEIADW
Method in brief: as §1

[4] = target: T3, CypE (Homo sapiens, UniProt Q9UNP9); experiment: Chymotrypsin coupled prolyl-isomerase assay; assay type: biochemical; settings: for prolyl-isomerase activity (raw dose-response value): CypE, in s^-1
T3 construct: PPIE (UniProtKB Entry Q9UNP9: residues 131–301); host or cells: E. coli BL21(DE3)
T3 sequence (Q9UNP9 131-301): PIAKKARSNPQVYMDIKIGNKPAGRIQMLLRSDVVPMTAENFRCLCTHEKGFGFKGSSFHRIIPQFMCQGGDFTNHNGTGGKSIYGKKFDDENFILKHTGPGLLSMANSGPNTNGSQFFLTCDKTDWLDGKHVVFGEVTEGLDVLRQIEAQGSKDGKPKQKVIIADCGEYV
Method in brief: as §1

[5] = target: T4, CypG (Homo sapiens, UniProt Q13427); experiment: Chymotrypsin coupled prolyl-isomerase assay; assay type: biochemical; settings: for prolyl-isomerase activity (raw dose-response value): CypG, in s^-1
T4 construct: PPIG (UniProtKB Entry Q13427: residues 1–179); His6 with thrombin site (pET28a LIC leader) (N); host or cells: E. coli BL21(DE3)
T4 sequence (Q13427 1-179): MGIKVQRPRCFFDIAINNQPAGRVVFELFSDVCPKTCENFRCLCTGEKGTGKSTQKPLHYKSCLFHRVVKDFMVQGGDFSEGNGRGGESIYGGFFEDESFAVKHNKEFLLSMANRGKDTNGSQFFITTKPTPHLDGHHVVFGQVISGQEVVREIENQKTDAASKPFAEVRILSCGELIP
Method in brief: as §1

[6] = target: T5, CypA (Homo sapiens, UniProt P62937); experiment: Chymotrypsin coupled prolyl-isomerase assay; assay type: biochemical; settings: for prolyl-isomerase activity (raw dose-response value): CypA, in s^-1
T5 construct: PPIA (UniProtKB Entry P62937: residues 1–165); made in house; host or cells: E. coli BL21(DE3)
T5 sequence (P62937 whole entry, the tested form may be a part): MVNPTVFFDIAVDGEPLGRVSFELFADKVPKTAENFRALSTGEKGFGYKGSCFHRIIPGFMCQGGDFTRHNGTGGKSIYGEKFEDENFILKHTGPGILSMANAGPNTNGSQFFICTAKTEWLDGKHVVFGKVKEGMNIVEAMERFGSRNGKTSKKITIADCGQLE
Method in brief: as §1

[7] = wild-type CypH, read-out: Wild-Type Cyclophilin Prolyl Isomerase Inhibition IC50 Values, CypH
[8] = wild-type CypC, read-out: Wild-Type Cyclophilin Prolyl Isomerase Inhibition IC50 Values, CypC
[9] = wild-type CypE, read-out: Wild-Type Cyclophilin Prolyl Isomerase Inhibition IC50 Values, CypE
[10] = wild-type CypG, read-out: Wild-Type Cyclophilin Prolyl Isomerase Inhibition IC50 Values, CypG
[11] = wild-type CypA, read-out: Wild-Type Cyclophilin Prolyl Isomerase Inhibition IC50 Values, CypA
[12] = prolyl-isomerase inhibition, 5 nM cyclophilin, read-out: IC50 CypH
[13] = prolyl-isomerase inhibition, 5 nM cyclophilin, read-out: IC50 CypC
[14] = prolyl-isomerase inhibition, 5 nM cyclophilin, read-out: IC50 CypA

plasma membrane permeability / mitochondrial localization (in words) [1]: poor
IC50 [2, 7]: > 10 µM
IC50 [3, 8]: > 10 µM
IC50 [4, 9]: > 10 µM
IC50 [5, 10]: > 10 µM
IC50 [6, 11]: > 10 µM
Compound: C[N+]1=C(C=CC=CC=C2N(CCCCCC(=O)NCCNC(=O)C3CCNC(=O)C=CC(=O)N4CCCC(Cc5ccccc5)(C4)C(=O)NC(Cc4ccc(-c5ccc(CC(C(=O)O)C(=O)O)cc5)cc4)C(=O)NCc4ccccc4CC(=O)N3)c3ccccc3C2(C)C)C(C)(C)c2ccccc21 (centres unmarked) [*B52-Cy5]

Compound: NCCOCCNC(=O)[C@@H]1CCNC(=O)/C=C/C(=O)N2CCC[C@](Cc3ccccc3)(C2)C(=O)N[C@@H](Cc2ccc(C(=O)c3ccccc3)cc2)C(=O)NCc2ccccc2CC(=O)N1 [Compound B1]
prolyl-isomerase activity (raw dose-response value) ([2]; dose 0.0228624 µM): 0.05823 and 0.06198 and 0.07295
prolyl-isomerase activity (raw dose-response value) ([2]; dose 0.0685871 µM): 0.0659 and 0.06156 and 0.06865
prolyl-isomerase activity (raw dose-response value) ([2]; dose 0.205761 µM): 0.06027 and 0.0617 and 0.06475
prolyl-isomerase activity (raw dose-response value) ([2]; dose 0.617284 µM): 0.05924 and 0.06278 and 0.06988
prolyl-isomerase activity (raw dose-response value) ([2]; dose 1.85185 µM): 0.05446 and 0.06201 and 0.06094
prolyl-isomerase activity (raw dose-response value) ([2]; dose 5.55556 µM): 0.05231 and 0.05643 and 0.05555
prolyl-isomerase activity (raw dose-response value) ([2]; dose 16.6667 µM): 0.04539 and 0.04092 and 0.04707
prolyl-isomerase activity (raw dose-response value) ([2]; dose 50 µM): 0.02854 and 0.02769 and 0.02761
IC50 [2, 7]: 20 µM
prolyl-isomerase activity (raw dose-response value) ([3]; dose 0.00244141 µM): 0.04561 and 0.0417 and 0.04308
prolyl-isomerase activity (raw dose-response value) ([3]; dose 0.00488281 µM): 0.04435 and 0.04111 and 0.04239
prolyl-isomerase activity (raw dose-response value) ([3]; dose 0.00976562 µM): 0.04356 and 0.0401 and 0.04072
prolyl-isomerase activity (raw dose-response value) ([3]; dose 0.0195312 µM): 0.03963 and 0.03695 and 0.03646
prolyl-isomerase activity (raw dose-response value) ([3]; dose 0.0390625 µM): 0.035 and 0.03188 and 0.03161
prolyl-isomerase activity (raw dose-response value) ([3]; dose 0.078125 µM): 0.02847 and 0.0253 and 0.02646
prolyl-isomerase activity (raw dose-response value) ([3]; dose 0.15625 µM): 0.02267 and 0.02159 and 0.02162
prolyl-isomerase activity (raw dose-response value) ([3]; dose 0.3125 µM): 0.01917 and 0.0189 and 0.01739
prolyl-isomerase activity (raw dose-response value) ([3]; dose 0.625 µM): 0.01677 and 0.01627 and 0.01518
prolyl-isomerase activity (raw dose-response value) ([3]; dose 1.25 µM): 0.01345 and 0.01256 and 0.01367
prolyl-isomerase activity (raw dose-response value) ([3]; dose 2.5 µM): 0.009144 and 0.00999 and 0.01009
IC50 [3, 8]: 0.079 µM
prolyl-isomerase activity (raw dose-response value) ([4]; dose 0.00244141 µM): 0.1145 and 0.1032 and 0.1074
prolyl-isomerase activity (raw dose-response value) ([4]; dose 0.00488281 µM): 0.1194 and 0.1024 and 0.1063
prolyl-isomerase activity (raw dose-response value) ([4]; dose 0.00976562 µM): 0.1019 and 0.09727 and 0.09617
prolyl-isomerase activity (raw dose-response value) ([4]; dose 0.0195312 µM): 0.09053 and 0.08335 and 0.08401
prolyl-isomerase activity (raw dose-response value) ([4]; dose 0.0390625 µM): 0.08777 and 0.07578 and 0.07602
prolyl-isomerase activity (raw dose-response value) ([4]; dose 0.078125 µM): 0.06552 and 0.06127 and 0.05879
prolyl-isomerase activity (raw dose-response value) ([4]; dose 0.15625 µM): 0.05184 and 0.04744 and 0.04506
prolyl-isomerase activity (raw dose-response value) ([4]; dose 0.3125 µM): 0.04144 and 0.0397 and 0.03654
prolyl-isomerase activity (raw dose-response value) ([4]; dose 0.625 µM): 0.03167 and 0.02791 and 0.02701
prolyl-isomerase activity (raw dose-response value) ([4]; dose 1.25 µM): 0.02174 and 0.02048 and 0.01944
prolyl-isomerase activity (raw dose-response value) ([4]; dose 2.5 µM): 0.0149 and 0.01299 and 0.01222
IC50 [4, 9]: 0.099 µM
prolyl-isomerase activity (raw dose-response value) ([5]; dose 6.125 µM): 0.0775 and 0.0774 and 0.07959
prolyl-isomerase activity (raw dose-response value) ([5]; dose 12.5 µM): 0.07476 and 0.07359 and 0.07437
prolyl-isomerase activity (raw dose-response value) ([5]; dose 25 µM): 0.06566 and 0.06625 and 0.06165
prolyl-isomerase activity (raw dose-response value) ([5]; dose 50 µM): 0.05369 and 0.05651 and 0.05019
prolyl-isomerase activity (raw dose-response value) ([5]; dose 100 µM): 0.03357 and 0.03853 and 0.03559
IC50 [5, 10]: 70 µM
prolyl-isomerase activity (raw dose-response value) ([6]; dose 0.00114312 µM): 0.07489 and 0.0818 and 0.1208
prolyl-isomerase activity (raw dose-response value) ([6]; dose 0.00342935 µM): 0.107 and 0.09816 and 0.1302
prolyl-isomerase activity (raw dose-response value) ([6]; dose 0.0102881 µM): 0.09417 and 0.08156 and 0.09814
prolyl-isomerase activity (raw dose-response value) ([6]; dose 0.0308642 µM): 0.0846 and 0.08188 and 0.08679
prolyl-isomerase activity (raw dose-response value) ([6]; dose 0.0925926 µM): 0.06244 and 0.05553 and 0.05478
prolyl-isomerase activity (raw dose-response value) ([6]; dose 0.277778 µM): 0.04513 and 0.03865 and 0.03913
prolyl-isomerase activity (raw dose-response value) ([6]; dose 0.833333 µM): 0.02761 and 0.02378 and 0.02924
prolyl-isomerase activity (raw dose-response value) ([6]; dose 2.5 µM): 0.01703 and 0.01931 and 0.02247
IC50 [6, 11]: 0.07 µM

Compound: NCCOCCNC(=O)[C@@H]1CCNC(=O)/C=C/C(=O)N2CCC[C@](Cc3ccccc3)(C2)C(=O)N[C@@H](Cc2ccc(-c3ccc(CC(C(=O)O)C(=O)O)cc3)cc2)C(=O)NCc2ccccc2CC(=O)N1 [Compound B52]
IC50 ([2]; Independent replicate 1, read-out: IC50 CypH): > 100 µM
IC50 ([2]; Independent replicate 2, read-out: IC50 CypH): > 100 µM
IC50 ([2]; Independent replicate 3, read-out: IC50 CypH): > 100 µM
IC50 ([2]; Independent replicate 4, read-out: IC50 CypH): > 100 µM
IC50 [2, 12]: > 100 µM
IC50 ([2]; prolyl-isomerase inhibition, read-out: IC50 CypH): > 100 µM
IC50 [2, 7]: > 100 µM
IC50 ([3]; Independent replicate 1, read-out: IC50 CypC): > 100 µM
IC50 ([3]; Independent replicate 2, read-out: IC50 CypC): > 100 µM
IC50 ([3]; Independent replicate 3, read-out: IC50 CypC): > 100 µM
IC50 ([3]; Independent replicate 4, read-out: IC50 CypC): > 100 µM
IC50 [3, 13]: > 100 µM
IC50 ([3]; prolyl-isomerase inhibition, read-out: IC50 CypC): > 100 µM
IC50 [3, 8]: > 100 µM
IC50 ([4]; Independent replicate 1, read-out: IC50 CypE): 0.21 ± 0.08 µM
IC50 ([4]; Independent replicate 2, read-out: IC50 CypE): 0.4 ± 0.1 µM
IC50 ([4]; Independent replicate 3, read-out: IC50 CypE): 0.3 ± 0.1 µM
IC50 ([4]; Independent replicate 4, read-out: IC50 CypE): 0.36 ± 0.07 µM
IC50 [4, 9]: 0.31 µM
IC50 ([5]; Independent replicate 1, read-out: IC50 CypG): ~80 µM
IC50 ([5]; Independent replicate 2, read-out: IC50 CypG): > 100 µM
IC50 ([5]; Independent replicate 3, read-out: IC50 CypG): ~80 µM
IC50 ([5]; Independent replicate 4, read-out: IC50 CypG): > 100 µM
IC50 ([5]; prolyl-isomerase inhibition, 5 nM cyclophilin, read-out: IC50 CypG): > 100 µM
IC50 ([5]; prolyl-isomerase inhibition, read-out: IC50 CypG): > 100 µM
IC50 [5, 10]: > 100 µM
IC50 ([6]; Independent replicate 2, read-out: IC50 CypA): 0.9 ± 0.1 µM
IC50 ([6]; Independent replicate 3, read-out: IC50 CypA): 0.9 ± 0.3 µM
IC50 ([6]; Independent replicate 4, read-out: IC50 CypA): 1.4 ± 0.5 µM
IC50 [6, 14]: 1.1 µM

Compound: NC(=O)[C@@H]1CCNC(=O)/C=C/C(=O)N2CCC[C@](Cc3ccccc3)(C2)C(=O)N[C@@H](Cc2ccc(-c3cccc(B(O)O)c3)cc2)C(=O)NCc2ccccc2CC(=O)N1 [Compound C6A]
IC50 [2, 12]: ~4 µM
IC50 [2, 7]: 4 µM
IC50 [3, 13]: ~5 µM
IC50 [3, 8]: 5 µM
IC50 ([4]; prolyl-isomerase inhibition, 5 nM cyclophilin, read-out: IC50 CypE): ~4 µM and 4 µM
IC50 [5, 10]: 1.3 µM
IC50 [6, 14]: ~6 µM
IC50 [6, 11]: 6 µM
